Earlier results in patent publication US6331660A, “Maize DIMBOA biosynthesis genes” (Dekalb Genetics Corporation, priority 1998, dated 2001).

Target: T1, native E. coli α2β2 complex of tryptophan synthase α (TSA) and tryptophan synthase β (TSB) (Escherichia coli, UniProt P0A877)
T1 construct: by the native E. coli α2β2 complex
Conditions: conversion of indole-3-glycerol phosphate to indole, Weischet et al., 1976

T1 sequence (P0A879 2-397): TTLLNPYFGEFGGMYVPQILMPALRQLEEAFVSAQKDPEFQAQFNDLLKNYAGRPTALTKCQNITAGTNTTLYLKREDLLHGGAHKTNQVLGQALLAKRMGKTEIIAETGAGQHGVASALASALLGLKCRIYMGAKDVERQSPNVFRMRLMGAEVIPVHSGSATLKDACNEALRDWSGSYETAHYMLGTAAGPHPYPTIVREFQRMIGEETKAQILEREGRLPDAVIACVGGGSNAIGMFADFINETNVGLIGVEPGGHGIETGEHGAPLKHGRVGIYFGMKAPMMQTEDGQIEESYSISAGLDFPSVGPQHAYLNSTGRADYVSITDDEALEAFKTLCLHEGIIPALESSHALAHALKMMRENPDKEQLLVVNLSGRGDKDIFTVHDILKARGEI
T1 sequence (P0A877 whole entry): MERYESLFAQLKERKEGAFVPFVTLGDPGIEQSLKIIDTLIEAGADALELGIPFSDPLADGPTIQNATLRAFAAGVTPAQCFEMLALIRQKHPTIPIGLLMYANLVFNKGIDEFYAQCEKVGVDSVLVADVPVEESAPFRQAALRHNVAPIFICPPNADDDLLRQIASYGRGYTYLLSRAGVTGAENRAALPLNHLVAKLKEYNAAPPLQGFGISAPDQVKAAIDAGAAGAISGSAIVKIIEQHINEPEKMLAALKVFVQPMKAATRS

For `O=P(O)(O)OCC(O)C(O)c1c[nH]c2ccccc12` (centres unmarked) [indole-3-glycerol phosphate], the kcat is given as 0.2 s⁻¹ and the Km (read-out: Km^indole-3-glycerol phosphate) is given as 27 µM.
